Experimental data from patent US10750743B2, “Pyridazinone herbicides” (E.I. DU PONT DE NEMOURS AND COMPANY, priority 2015, dated 2020).

Assays:
Type in all cases: in vivo
[1] = test system: barnyardgrass (Echinochloa crus-galli); assay: Test A preemergence, directed soil spray, visual injury rating; details: Echinochloa crus-galli, pre-emergence, 240 h, 0 is no effect, 100 is complete control, read-out: Plant response rating (0 to 100 scale), Barnyardgrass; for pest or weed control at 125 g/ha: 125 g ai/ha; for pest or weed control at 500 g/ha: 500 g ai/ha
In short: (§1)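 Injury ratings, 0 (no effect) to 100 (complete control), were scored visually versus untreated plants roughly 10 d after treatment under greenhouse conditions. Treatments used surfactant-containing solvent formulations, sprayed onto soil preemergence or onto one- to two-leaf seedlings (2-10 cm) postemergence, grown in a loam-sand mix.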

[2] = test system: foxtail, giant (giant foxtail, Setaria faberii); assay: as above; details: Setaria faberi, pre-emergence, 240 h, 0 is no effect, 100 is complete control, read-out: Plant response rating (0 to 100 scale), Foxtail, Giant; for pest or weed control at 125 g/ha: 125 g ai/ha; for pest or weed control at 500 g/ha: 500 g ai/ha
In short: as §1

kochia (Kochia scoparia) [3] = assay: as above; details: Bassia scoparia, pre-emergence, 240 h, 0 is no effect, 100 is complete control, read-out: Plant response rating (0 to 100 scale), Kochia; for pest or weed control at 125 g/ha: 125 g ai/ha; for pest or weed control at 500 g/ha: 500 g ai/ha
In short: as §1

[4] = test system: ragweed (common ragweed, Ambrosia elatior); assay: as above; details: Ambrosia artemisiifolia, pre-emergence, 240 h, 0 is no effect, 100 is complete control, read-out: Plant response rating (0 to 100 scale), Ragweed; for pest or weed control at 125 g/ha: 125 g ai/ha; for pest or weed control at 500 g/ha: 500 g ai/ha
In short: as §1

[5] = test system: pigweed (Amaranthus retroflexus); assay: as above; details: Amaranthus retroflexus, pre-emergence, 240 h, 0 is no effect, 100 is complete control, read-out: Plant response rating (0 to 100 scale), Pigweed; for pest or weed control at 125 g/ha: 125 g ai/ha; for pest or weed control at 500 g/ha: 500 g ai/ha
In short: as §1

[6] = test system: ryegrass, It. (Italian ryegrass, Lolium multiflorum); assay: as above; details: Lolium multiflorum, pre-emergence, 240 h, 0 is no effect, 100 is complete control, read-out: Plant response rating (0 to 100 scale), Ryegrass, It.; for pest or weed control at 125 g/ha: 125 g ai/ha; for pest or weed control at 500 g/ha: 500 g ai/ha
In short: as §1

[7] = test system: barnyardgrass (Echinochloa crus-galli); assay: Test A postemergence application, visual injury rating; details: Echinochloa crus-galli, post-emergence, 240 h, 0 to 100 scale, 0 no effect, 100 complete control, read-out: Barnyardgrass plant response rating; for pest or weed control at 125 g/ha: 125 g ai/ha; for pest or weed control at 500 g/ha: 500 g ai/ha
In short: as §1

[8] = test system: wheat (Triticum aestivum); assay: as above; details: Triticum aestivum, post-emergence, 240 h, 0 to 100 scale, 0 no effect, 100 complete control, read-out: Wheat plant response rating; for plant injury at 125 g/ha: 125 g ai/ha; for plant injury at 500 g/ha: 500 g ai/ha
In short: as §1

[9] = test system: galium (catchweed bedstraw, Galium aparine); assay: as above; details: Galium, post-emergence, 240 h, 0 to 100 scale, 0 no effect, 100 complete control, read-out: Galium plant response rating; for pest or weed control at 125 g/ha: 125 g ai/ha; for pest or weed control at 500 g/ha: 500 g ai/ha
In short: as §1

[10] = test system: foxtail, giant (giant foxtail, Setaria faberii); assay: as above; details: Setaria faberi, post-emergence, 240 h, 0 to 100 scale, 0 no effect, 100 complete control, read-out: Foxtail, Giant plant response rating; for pest or weed control at 125 g/ha: 125 g ai/ha; for pest or weed control at 500 g/ha: 500 g ai/ha
In short: as §1

kochia (Kochia scoparia) [11] = assay: as above; details: Bassia scoparia, post-emergence, 240 h, 0 to 100 scale, 0 no effect, 100 complete control, read-out: Kochia plant response rating; for pest or weed control at 125 g/ha: 125 g ai/ha; for pest or weed control at 500 g/ha: 500 g ai/ha
In short: as §1

[12] = test system: ragweed (common ragweed, Ambrosia elatior); assay: as above; details: Ambrosia artemisiifolia, post-emergence, 240 h, 0 to 100 scale, 0 no effect, 100 complete control, read-out: Ragweed plant response rating; for pest or weed control at 125 g/ha: 125 g ai/ha; for pest or weed control at 500 g/ha: 500 g ai/ha
In short: as §1

[13] = test system: blackgrass (Alopecurus myosuroides); assay: as above; details: Alopecurus myosuroides, post-emergence, 240 h, 0 to 100 scale, 0 no effect, 100 complete control, read-out: Blackgrass plant response rating; for pest or weed control at 125 g/ha: 125 g ai/ha; for pest or weed control at 500 g/ha: 500 g ai/ha
In short: as §1

[14] = test system: pigweed (Amaranthus retroflexus); assay: as above; details: Amaranthus retroflexus, post-emergence, 240 h, 0 to 100 scale, 0 no effect, 100 complete control, read-out: Pigweed plant response rating; for pest or weed control at 125 g/ha: 125 g ai/ha; for pest or weed control at 500 g/ha: 500 g ai/ha
In short: as §1

[15] = test system: ryegrass, It. (Italian ryegrass, Lolium multiflorum); assay: as above; details: Lolium multiflorum, post-emergence, 240 h, 0 to 100 scale, 0 no effect, 100 complete control, read-out: Ryegrass, It. plant response rating; for pest or weed control at 125 g/ha: 125 g ai/ha; for pest or weed control at 500 g/ha: 500 g ai/ha
In short: as §1

corn (Zea mays) = assay: as above; details: Zea mays, post-emergence, 240 h, 0 to 100 scale, 0 no effect, 100 complete control, read-out: Corn plant response rating; for plant injury at 125 g/ha: 125 g ai/ha; for plant injury at 500 g/ha: 500 g ai/ha
In short: as §1

[16] = test system: sedge, umbrella (small-flower umbrella sedge, Cyperus difformis); assay: Test B flooded paddy test, visual rating; details: Cyperus difformis, 360 h; Flood, 250 g ai/ha, applied to paddy water, rated after 13 to 15 d; read-out: Sedge, Umbrella plant response rating (0 to 100 scale, 0 is no effect, 100 is complete control)
In short: (§2)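 Ratings use a 0-100 visual scale, where 100 is complete control, and compare treated plants with controls after 13 to 15 d of greenhouse growth. Compound went straight into paddy water kept 3 cm over the soil surface, applied to seedlings at the 2-leaf stage.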

[17] = test system: ducksalad (Heteranthera limosa); assay: Test B flooded paddy test, visual rating; details: Heteranthera limosa, 360 h; Flood, 250 g ai/ha, applied to paddy water, rated after 13 to 15 d; read-out: Ducksalad plant response rating (0 to 100 scale, 0 is no effect, 100 is complete control)
In short: as §2

rice (Oryza sativa) = assay: Test B flooded paddy test, visual rating; details: Oryza sativa, 360 h; Flood, 250 g ai/ha, applied to paddy water, rated after 13 to 15 d; read-out: Rice plant response rating (0 to 100 scale, 0 is no effect, 100 is complete control)
In short: as §2

| SMILES | pest or weed control at 125 g/ha [1] | pest or weed control at 500 g/ha [1] | pest or weed control at 125 g/ha [2] | pest or weed control at 500 g/ha [2] | pest or weed control at 125 g/ha (kochia (Kochia scoparia) [3]) | pest or weed control at 500 g/ha (kochia (Kochia scoparia) [3]) | pest or weed control at 125 g/ha [4] | pest or weed control at 500 g/ha [4] | pest or weed control at 125 g/ha [5] | pest or weed control at 500 g/ha [5] | pest or weed control at 125 g/ha [6] | pest or weed control at 500 g/ha [6] | pest or weed control at 125 g/ha [7] | pest or weed control at 500 g/ha [7] | plant injury at 125 g/ha [8] | plant injury at 500 g/ha [8] | pest or weed control at 125 g/ha [9] | pest or weed control at 500 g/ha [9] | pest or weed control at 125 g/ha [10] | pest or weed control at 500 g/ha [10] | also measured |
| --- | --- | --- | --- | --- | --- | --- | --- | --- | --- | --- | --- | --- | --- | --- | --- | --- | --- | --- | --- | --- | --- |
| Cc1cc2ccc(C)c(-c3c(O)c(C)nn(C)c3=O)c2o1 [Compound 10, 4-(2,6-dimethyl-7-benzofuranyl)-5-hydroxy-2,6-dimethyl-3(2H)-pyridazinone] | 80% | 90% | 80% | 100% | 100% | 100% | 90% | 90% | 100% | 100% | 100% | 100% | 50% | 90% | 20% | 60% | 100% | 100% | 80% | 90% | pest or weed control at 125 g/ha (kochia (Kochia scoparia) [11]): 100%; pest or weed control at 500 g/ha (kochia (Kochia scoparia) [11]): 100%; pest or weed control at 125 g/ha [12]: 100%; pest or weed control at 500 g/ha [12]: 100%; pest or weed control at 125 g/ha [13]: 60%; pest or weed control at 500 g/ha [13]: 90%; pest or weed control at 125 g/ha [14]: 90%; pest or weed control at 500 g/ha [14]: 100%; pest or weed control at 125 g/ha [15]: 100%; pest or weed control at 500 g/ha [15]: 100%; plant injury at 125 g/ha (corn (Zea mays)): 10%; plant injury at 500 g/ha (corn (Zea mays)): 30%; pest or weed control at 250 g/ha [16]: 0%; pest or weed control at 250 g/ha [17]: 0%; plant injury at 250 g/ha (rice (Oryza sativa)): 0% |
| CC(=O)Oc1c(C)nn(C)c(=O)c1-c1cccc2cc(C)oc12 [Compound 13, 5-(acetyloxy)-2,6-dimethyl-4-(2-methyl-7-benzofuranyl)-3 (2H)-pyridazinone] | 20% | 60% | 10% | 60% | 0% | 100% | 40% | 80% | 40% | 100% | 100% | 100% | 0% | 50% | 0% | 20% | 80% | 90% | 30% | 50% | pest or weed control at 125 g/ha (kochia (Kochia scoparia) [11]): 50%; pest or weed control at 500 g/ha (kochia (Kochia scoparia) [11]): 80%; pest or weed control at 125 g/ha [12]: 50%; pest or weed control at 500 g/ha [12]: 70%; pest or weed control at 125 g/ha [13]: 60%; pest or weed control at 500 g/ha [13]: 80%; pest or weed control at 125 g/ha [14]: 60%; pest or weed control at 500 g/ha [14]: 70%; pest or weed control at 125 g/ha [15]: 90%; pest or weed control at 500 g/ha [15]: 100%; plant injury at 125 g/ha (corn (Zea mays)): 0%; plant injury at 500 g/ha (corn (Zea mays)): 20% |
